Experimental data as given in US20190233884A1 (University of Southern California, priority 2016, published 2019).

Test system: patients with refractory metastatic colorectal cancer (mCRC)
Assay: PFS, OS and disease control in the training (evaluation) cohort of refractory mCRC patients receiving TAS-102 (n=52, Japan), by baseline characteristics, SNP genotype and toxicity
Type: in vivo, human
Conditions: for PFS HR (95% CI) ‡ / OS HR (95% CI)‡: multivariable; for HR for OS / HR for PFS / Disease Control Rate PD / Disease Control Rate SD / Overall Survival Median, months (95% CI) / Progression-free Survival Median, months (95% CI) / Overall Survival HR (95% CI) multivariate / Overall Survival HR (95% CI) univariate / Progression-free Survival HR (95% CI) multivariate / Progression-free Survival HR (95% CI) univariate / OS / PFS: training cohort
Protocol: All patients underwent the treatment in salvage-line setting. […]
Genomic DNA was extracted from peripheral whole blood in patients of all cohorts using the QIAmp Kit (Qiagen, Valencia, Calif., USA) according to the manufacturer's protocol (www.qiagen.com). The candidate SNPs were genotyped using PCR-based direct DNA sequence analysis by ABI 3100A Capillary Genetic Analyzer and Sequencing Scanner v1.0 (Applied Biosystems). Amplification of extracted DNA was carried out using both forward and reverse primers for each gene polymorphism as shown in Table 1. […] The investigators analyzing SNPs were blinded to the clinical data of the study patients.
The primary endpoint in this study was progression-free survival (PFS), and the secondary endpoints were overall survival (OS) and disease control rate (DCR). PFS was calculated from the date of starting treatment to the first observation of disease progression or death from any cause. If a patient had no disease progression or death, PFS was censored at the date of last follow up. OS was calculated from the date of starting treatment until the date of death from any cause or the date of the last follow-up, at which point OS was censored. The disease control rate (DCR) was defined as the proportion of patients who achieved a stable disease (SD) or […] according to RECISTv1.1. Chi-square test was used to examine the difference in baseline patient characteristics among the three cohorts. Allelic distribution of all SNPs by ethnicity for deviation from Hardy-Weinberg equilibrium and the allelic frequencies of SNPs were tested using the Chi-square tests with one degree of freedom. The associations between candidate SNPs and disease control, and toxicities were examined using contingency tables and Fisher's exact test. The associations of SNPs with PFS and OS were analysed using Kaplan-Meier curves and the log-rank test. Because the true mode of inheritance of candidate SNPs was not established yet, a codominant or dominant genetic model if appropriate was considered.
All patients underwent the treatment in salvage-line setting. […] In all patients, adverse events were graded according to the Common Terminology Criteria for Adverse Events, version 4.0. […]
Genomic DNA was extracted from peripheral whole blood in patients of all cohorts using the QIAmp Kit (Qiagen, Valencia, Calif., USA) according to the manufacturer's protocol (www.qiagen.com). The candidate SNPs were tested using PCR-based direct DNA sequence analysis by ABI 3100A Capillary Genetic Analyzer and Sequencing Scanner v1.0 (Applied Biosystems). […] The investigators analyzing SNPs were blinded to the clinical data.
The primary endpoint in this study was progression-free survival (PFS), and the secondary endpoints were overall survival (OS) and disease control rate (DCR).

[1] = p21 rs1801270 Any C vs A/A, univariate
[2] = p21 rs1801270 C/C vs A/A, univariate
[3] = p53 rs1042522 Any G vs C/C, univariate
[4] = p53 rs1042522 C/G vs C/C, univariate
[5] = p53 rs1042522 G/G vs C/C, univariate
[6] = MATE1/OCT2 combination Good vs Poor, univariate
[7] = MATE1/OCT2 combination, multivariable adjusted for liver metastases and adjuvant history
[8] = MATE1 rs2289669/OCT2 rs316019 combination, Good category
[9] = MATE1 rs2289669/OCT2 rs316019 combination, Poor category
[10] = MATE1 rs2289669 G/A vs G/G, univariate
[11] = OCT2 rs316019 C/A and A/A combined vs C/C

## Trifluridine/tipiracil [TAS-102]
p21 rs1801270 Any C vs A/A
  PFS HR (95% CI) ‡: 0.74 (0.37, 1.49)
[1]
  OS HR (95% CI)†: 0.64 (0.27, 1.56)
  PFS HR (95% CI) †: 0.88 (0.44, 1.74)
p21 rs1801270 C/C
  OS median, months (95% CI): 6.3 (3.1, 10.7) months
  PFS median, months (95% CI): 2.7 (1.6, 4.6) months
p21 rs1801270 C/C vs A/A
  OS HR (95% CI)‡: 0.72 (0.24, 2.15)
  PFS HR (95% CI) ‡: 0.77 (0.33, 1.79)
[2]
  OS HR (95% CI)†: 0.85 (0.29, 2.48)
  PFS HR (95% CI) †: 0.97 (0.43, 2.17)
p53 rs1042522 Any G
  OS median, months (95% CI): 7.2 (5.4, 15.6+) months
  PFS median, months (95% CI): 3.0 (2.1, 3.4) months
p53 rs1042522 Any G vs C/C
  OS HR (95% CI)‡: 1.28 (0.52, 3.19)
  PFS HR (95% CI) ‡: 1.10 (0.58, 2.09)
[3]
  OS HR (95% CI)†: 1.15 (0.47, 2.81)
  PFS HR (95% CI) †: 0.89 (0.48, 1.65)
p53 rs1042522 C/C
  OS median, months (95% CI): 8.7 (5.3, 14.8+) months
  PFS median, months (95% CI): 2.5 (1.6, 4.4) months
p53 rs1042522 C/G
  OS median, months (95% CI): 6.3 (4.4, 12.4+) months
  PFS median, months (95% CI): 3.0 (1.9, 3.5) months
p53 rs1042522 C/G vs C/C
  OS HR (95% CI)‡: 1.61 (0.64, 4.06)
  PFS HR (95% CI) ‡: 1.12 (0.57, 2.21)
[4]
  OS HR (95% CI)†: 1.35 (0.55, 3.35)
  PFS HR (95% CI) †: 0.86 (0.45, 1.65)
p53 rs1042522 G/G
  PFS median, months (95% CI): 2.3 (0.7, 4.6+) months
p53 rs1042522 G/G vs C/C
  OS HR (95% CI)‡: 0.38 (0.05, 3.11)
  PFS HR (95% CI) ‡: 1.04 (0.38, 2.86)
[5]
  OS HR (95% CI)†: 0.41 (0.05, 3.29)
  PFS HR (95% CI) †: 1.02 (0.37, 2.77)
[6]
  HR for OS: 0.39
  HR for PFS: 0.44
[7]
  HR for OS: 0.41
  HR for PFS: 0.45
MATE1_OCT019 good
  Disease Control Rate PD: 20 (59%)
  Disease Control Rate SD: 14 (41%)
  Overall Survival Median, months (95% CI): 8.3 (6.3, 15.6) months
  Progression-free Survival Median, months (95% CI): 3.4 (2.1, 4.1) months
MATE1_OCT019 good vs poor
  Overall Survival HR (95% CI) multivariate: 0.41 (0.16, 1.04)
  Overall Survival HR (95% CI) univariate: 0.39 (0.15, 0.98)
  Progression-free Survival HR (95% CI) multivariate: 0.45 (0.23, 0.88)
  Progression-free Survival HR (95% CI) univariate: 0.44 (0.22, 0.85)
MATE1_OCT019 poor
  Disease Control Rate PD: 11 (92%)
  Disease Control Rate SD: 1 (8%)
  Overall Survival Median, months (95% CI): 4.9 (2.8, 10.7) months
  Progression-free Survival Median, months (95% CI): 2.3 (1.2, 2.9) months
[8]
  OS: 8.3 months
  PFS: 3.4 months
[9]
  OS: 4.9 months
  PFS: 2.3 months
MATE1 rs2289669 A/A
  Disease Control Rate PD: 8 (80%)
  Disease Control Rate SD: 2 (20%)
  Overall Survival Median, months (95% CI): 4.9 (2.8, 6.5+) months
  Progression-free Survival Median, months (95% CI): 2.3 (1.2, 3.3) months
MATE1 rs2289669 A/A vs G/G
  Overall Survival HR (95% CI) multivariate: 1.98 (0.56, 6.99)
  Overall Survival HR (95% CI) univariate: 2.40 (0.59, 8.37)
  Progression-free Survival HR (95% CI) multivariate: 0.92 (0.38, 2.24)
  Progression-free Survival HR (95% CI) univariate: 0.94 (0.40, 2.18)
MATE1 rs2289669 Any A
  Disease Control Rate PD: 22 (61%)
  Disease Control Rate SD: 14 (39%)
  Overall Survival Median, months (95% CI): 8.3 (5.3, 15.6+) months
  Progression-free Survival Median, months (95% CI): 3.0 (2.1, 3.7) months
MATE1 rs2289669 Any A vs G/G
  Overall Survival HR (95% CI) multivariate: 0.93 (0.33, 2.59)
  Overall Survival HR (95% CI) univariate: 1.03 (0.37, 2.83)
  Progression-free Survival HR (95% CI) multivariate: 0.53 (0.25, 1.13)
  Progression-free Survival HR (95% CI) univariate: 0.56 (0.28, 1.13)
MATE1 rs2289669 G/A
  Disease Control Rate PD: 14 (54%)
  Disease Control Rate SD: 12 (45%)
  OS: 12.4 months
  Overall Survival Median, months (95% CI): 12.4 (5.7, 15.6+) months
  PFS: 3.4 months
  Progression-free Survival Median, months (95% CI): 3.4 (2.1, 4.4) months
MATE1 rs2289669 G/A vs G/G
  Overall Survival HR (95% CI) multivariate: 0.59 (0.23, 2.11)
  Overall Survival HR (95% CI) univariate: 0.75 (0.26, 2.28)
  Progression-free Survival HR (95% CI) multivariate: 0.41 (0.18, 0.94)
  Progression-free Survival HR (95% CI) univariate: 0.44 (0.20, 0.93)
[10]
  HR for OS: 0.76
  HR for PFS: 0.44
MATE1 rs2289669 G/A, multivariate adjusted for liver metastases and adjuvant history
  HR for PFS: 0.41
MATE1 rs2289669 G/G
  Disease Control Rate PD: 9 (90%)
  Disease Control Rate SD: 1 (10%)
  OS: 8.1 months
  Overall Survival Median, months (95% CI): 8.1 (5.4, 10.7+) months
  PFS: 2.0 months
  Progression-free Survival Median, months (95% CI): 2.0 (1.4, 3.4) months
OCT2 rs316019 A/A
  Disease Control Rate PD: 1 (25%)
  Disease Control Rate SD: 3 (75%)
OCT2 rs316019 C/A
  Disease Control Rate PD: 6 (67%)
  Disease Control Rate SD: 3 (33%)
OCT2 rs316019 C/A and A/A combined
  Progression-free Survival Median, months (95% CI): 3.0 (1.2, 6.0+) months
[11]
  Overall Survival HR (95% CI) multivariate: 1.74 (0.55, 5.51)
  Overall Survival HR (95% CI) univariate: 1.04 (0.38, 2.89)
  Progression-free Survival HR (95% CI) multivariate: 1.32 (0.58, 3.02)
